Test results: article PMC10838102 (Journal of Experimental Pharmacology, 2024)

Assays:
[1] = with piperine; cited from earlier work
[2] = concurrent administration of 2 g of curcumin and 5 mg of piperine; cited from earlier work
[3] = test system: Caco-2 cell monolayer; assay: Caco-2 cell monolayer permeability assay with LC-MS/MS analysis; conditions: 2-hour permeability experiment

COc1cc(/C=C/C(=O)CC(=O)/C=C/c2ccc(O)c(OC)c2)ccc1O [curcumin]
increase of bioavailability of curcumin [1]: 20 folds
increase in curcumin's bioavailability [2]: approximately a twofold increase

CC(C)NCC(O)COc1cccc2ccccc12 (stereo not drawn) [propranolol]
Papp classification [3]: high
